Measurements taken from patent EP1268431B1 (Wyeth, priority 2000, dated 2001).
Where “and” joins values, the source holds several entries; their conditions need not be identical. Equal values may be shown once.

Legend:
Raf-1 (c-Raf) = target: T1, Raf-1 (c-Raf) (Homo sapiens, UniProt P04049); assay: Raf1 Kinase Cascade Assay; format: biochemical
T1 construct: Sf9 insect cell lysate containing full length 6his-tagged recombinant human c-Raf; 6his; host or cells: Sf9 insect cells (c-Raf, used as lysate); E. coli (GST-MEK1, GST-MAPK)
Procedure: (Specific Activity: -200U/ml). Human Non-active Mek-1-GST and human GST-MAP kinase (recombinant proteins produced in E. coli).
• Assay Dilution Buffer (ADB); 20mM MOPS, pH 7.2, 25mM β-glycerol phosphate, 5mM EGTA, 1mM sodium orthovanadate, 1mM dithiothreitol. • Magnesium/ATP Cocktail: 500µM cold ATP and 75 mM magnesium chloride in ADB. • Active Kinase: Human Active c-Raf: Use at 0.4U per assay point. • Non-active GST-MEK1: Use at 0.1 µg per assay point. • Non-active GST-p42 MAP Kinase: Use at 1.0 µg per assay point.
• TBST - Tris (50 mM, pH 7.5), NaCl (150 mM), Tween-20 (0.05 %) • Superblock (Pierce) • Anti-GST Ab (Pharmacia) • Anti-Phospho MAPK (Sigma) • Anti-Mouse Ab / Europium conjugate (Wallac)
IC50 determinations - done on compounds from single point assays with >80% inhibition. Typically Raf-1 assay is run at compound concentrations from 10 µM to 30 nM in half log dilutions. (% inhibition is determined for each compound concentration).

[1] = test system: Human adenocarcinoma cell line LoVo; assay: Cell Based Screen for Inhibitors of Raf Kinase, LoVo cells; settings: four days, SRB
[2] = test system: human adenocarcinoma cell line CaCo-2; assay: Cell Based Screen for Inhibitors of Raf Kinase, CaCo-2 cells; settings: CaCo-2, four days, SRB
Procedure: • Cell Lines: Human adenocarcinoma cell line LoVo which is known to be growth inhibited by low nM concentrations of a reference standard inhibitor of Ras and human adenocarcinoma cell line CaCo-2, which is known to be growth resistant to the same reference compound. • Cell Media: RPMI 1640 with 10% Fetal Bovine Serum supplemented with L-glutamine and Pennicilin/Streptomycin. • Compounds: Supplied usually as a 10 mM stock in 100% DMSO. • Normal Saline: 150 mM NaCl • Trichloroacetic Acid (TCA): 50% (w/v) in water • Sulforhodamine B (SRB): 0.4% (w/v) in 1% Acetic Acid • Tris Base: 10 mM in water
Cells are plated at 2000 cells per well for cell line LoVo and 1500 cells for cell line CaCo-2 in 96 well plates. Cells are plated in media (200 µl) and allowed to adhere overnight at 37° C. At 24 hours post plating, compounds are added directly at a volume of 0.5 µl. For the qualitative screen (compounds screened at 25 µM) compound is added directly to cells. For the quantitative screen, compound is first diluted in DMSO to generate concentrations of compound or reference standard of: 1, 5, 10 and 25 µM. It is advisable to make the dilutions in an identical 96 well plate so that compounds may be added using a multichannel micropipettor set at 0.5 µl. The cells are then incubated for four days after which the media is removed using a 12 well manifold by first tipping the plate forward at a 45 degree angle and then inserting the manifold in an upright orientation to prevent the tips of the manifold from disturbing cells at the bottom of the plate. 200 µl of normal saline is then added to each well using an 8 well multichannel pipettor, followed by the careful addition of 50 µl of 50% TCA. The plates are then incubated for 2 hours at 4 ° C, after which the supernatant is removed using the same technique as above and the plated washed twice with 200 µl water. The plates are then air dried and 50 µl of SRB stock solution is carefully added so that the entire bottom of each well is covered. This again may be used using an 8 well multichannel pipettor. The SRB is incubated with fixed cells for 15 minutes at room temperature after which the SRB is removed with the manifold as described above and the plates washed twice with 350 µl of 1% acetic acid per well each time.The plates are then air dried after which the bound SRB is released from protein by the addition of 200 µl of Tris base. Resolubilizing the SRB is aided by placing the plates on a rotator for 15-30 minutes. The absorbance of each well is determined at 550 or 562 nm using a microtiter plate reader.
Each compound or dilution thereof is performed in triplicate. Outliers are identified by visual inspection of the data. Each plate should have a "0" control (vehicle only).
Quantitative Assay: A standard curve is constructed by plotting the concentration of compound against the average absorbance calculated at that concentration. A curve is plotted and the concentration at which the curve passes through the 50% the absorbance mark seen in the "0" control well is the IC50 calculated for that compound. […]

4-{3-chloro-4-[(1-methyl-1H-imidazol-2-yl)sulfanyl]anilino}-7-[4-(1-piperidinylmethyl)phenyl]-3-quinolinecarbonitrile [Example 136]
IC50 (Raf-1 (c-Raf)): 2.5 nM and 1.8 nM
IC50 [1]: 11 nM
IC50 [2]: > 1000 nM

4-({3-chloro-4-[(1-methyl-1H-imidazol-2-yl)sulfanyl]phenyl}amino) -7-[5-(1-pyridinyl]-3-quinolinecarbonitrile [Example 180]
IC50 (Raf-1 (c-Raf)): 3.7 nM
IC50 [1]: 5.6 nM
IC50 [2]: 930 nM

4-{3-chloro-4-[(1-methyl-1H-imidazol-2-yl)sulfanyl]anilino}-7-{5-[(4-ethyl-1-piperazinyl)methyl]-2-furyl}-3-quinolinecarbonitrile [Example 156]
IC50 (Raf-1 (c-Raf)): 9 nM and 12 nM
IC50 [1]: 5.6 nM
IC50 [2]: 1000 nM

Cn1ccnc1Sc1ccc(Nc2c(C#N)cnc3cc(-c4ccc(CN5CCOCC5)cc4)ccc23)cc1Cl [Example 138]
IC50 (Raf-1 (c-Raf)): 5.6 nM
IC50 [1]: 6.2 nM
IC50 [2]: 810 nM

Cn1ccnc1Sc1ccc(Nc2c(C#N)cnc3cc(-c4ccc(CN5CCCCC5)o4)ccc23)cc1Cl [Example 155, 4-{3-chloro-4-[(1-methyl-1H-imidazol-2-yl)sulfanyl]anilino}-7-[5-(1-piperidinylmethyl)-2-furyl]-3-quinolinecarbonitrile]
IC50 (Raf-1 (c-Raf)): 20 nM

Cn1ccnc1Sc1ccc(Nc2c(C#N)cnc3cc(-c4ccc(CN5CCNCC5)cc4)ccc23)cc1Cl [Example 97, 4-({3-Chloro-4-[(1-methyl-1H-imidazol-2-yl)sulfanyl]phenyl}amino)-7-[4-(1-piperazinylmethyl)phenyl]-3-quinolinecarbonitrile]
IC50 (Raf-1 (c-Raf)): 16 nM
IC50 [1]: 33 nM
IC50 [2]: > 1000 nM

Cn1ccnc1Sc1ccc(Nc2c(C#N)cnc3cc(-c4csc(CN5CCOCC5)c4)ccc23)cc1Cl [Example 33, 4-{3-Chloro-4-[(1-methyl-1H-imidazol-2-yl)sulfanyl]anilino}-7-[5-(4-morpholinylmethyl)-3-thienyl]-3-quinolinecarbonitrite]
IC50 (Raf-1 (c-Raf)): 6 nM
IC50 [1]: 6 nM

N#Cc1cnc2cc(-c3csc(CN4CCOCC4)c3)ccc2c1Nc1ccc(Oc2ccccc2)cc1 [Example 7, 7-[5-(4-Morpholinylmethyl)-3-thienyl]-4-(4-phenoxyanilino)-3-quinolinecarbonitrile]
IC50 ([1]; Homo sapiens, 96 h): 3700 nM
IC50 ([2]; Homo sapiens, Caco-2, 96 h): > 10000 nM

Cn1ccnc1Sc1ccc(Nc2c(C#N)cnc3cc(-c4ccc(CN5CCN(CCO)CC5)cn4)ccc23)cc1Cl [Example 217, 4-({3-chloro-4-[(1-methyl-1H-imidazol-2-yl)sulfanyl]phenyl}amino)-7-(5-{[4-(2-hydroxyethyl)-1-piperazinyl]methyl}-2-pyridinyl)-3-quinolinecarbonitrile]
IC50 ([1]; Homo sapiens, 96 h): 36 nM
IC50 ([2]; Homo sapiens, Caco-2, 96 h): > 1000 nM

Cn1ccnc1Sc1ccc(Nc2c(C#N)cnc3cc(-c4ccc(CN5CCCCC5)s4)ccc23)cc1Cl [Example 160, 4-{3-chloro-4-[(1-methyl-1H-imidazol-2-yl)sulfanyl]anilino}-7-[5-(1-piperidinylmethyl)-2-thienyl]-3-quinolinecarbonitrile]
IC50 ([1]; Homo sapiens, 96 h): 4.1 nM
IC50 ([2]; Homo sapiens, Caco-2, 96 h): 620 nM

CN1CCN(Cc2cccc(-c3ccc4c(Nc5ccc(Sc6nccn6C)c(Cl)c5)c(C#N)cnc4c3)n2)CC1 [Example 202, 4-{3-chloro-4-[(1-methyl-1H-imidazol-2-yl)sulfanyl]anilino}-7-{6-[(4-methyl-1-piperazinyl)methyl]-2-pyridinyl}-3-quinolinecarbonitrile]
IC50 ([1]; Homo sapiens, 96 h): 6.5 nM
IC50 ([2]; Homo sapiens, Caco-2, 96 h): > 1000 nM

Cn1ccnc1Sc1ccc(Nc2c(C#N)cnc3cc(-c4ccc(CN5CCC(N6CCCC6)CC5)cn4)ccc23)cc1Cl [Example 173, 4-{3-chloro-4-[(1-methyl-1H-imidazol-2-yl)sulfanyl]anilino}-7-(5-{[4-(1-pyrrolidinyl)-1-piperidinyl]methyl}-2-pyridinyl)-3-quinolinecarbonitrile]
IC50 ([1]; Homo sapiens, 96 h): 25 nM
IC50 ([2]; Homo sapiens, Caco-2, 96 h): > 1000 nM

Cn1ccnc1Sc1ccc(Nc2c(C#N)cnc3cc(-c4cnc(N5CCOCC5)nc4)ccc23)cc1Cl [Example 191, 4-{3-chloro-4-[(1-methyl-1H-imidazol-2-yl)sufanyl]anilino}-7-[2-(4-morpholinyl)-5-pyrimidinyl]-3-quinolinecarbonitrile]
IC50 (Raf-1 (c-Raf)): 1 nM
IC50 [1]: 30 nM
IC50 [2]: > 10000 nM

4-({3-chloro-4-[(1-methyl-1H-imidazol-2-yl)sulfanyl]phenyl}amino)-7-[6-(1-piperidinyl)-3-pyridinyl]-3-quinolinecarbonitrile [Example 211]
IC50 (Raf-1 (c-Raf)): 6 nM
IC50 [1]: 5.3 nM
IC50 [2]: > 1000 nM

N#Cc1cnc2cc(-c3csc(CN4CCCCC4)c3)ccc2c1Nc1ccc(Sc2ccccc2)c(Cl)c1 [Example 462, 4-{[3-chloro-4-(phenylsulfanyl)phenyl]amino}-7-[5-(1-piperidinylmethyl)-3-thienyl]-3-quinolinecarbonitrile]
IC50 (Raf-1 (c-Raf)): 50 nM

Cn1ccnc1Sc1ccc(Nc2c(C#N)cnc3cc(-c4ccc(CN5CCOCC5)c(CN5CCOCC5)c4)ccc23)cc1Cl [Example 35, 7-[3,4-Bis(4-morpholinylmethyl)phenyl]-4-[3-chloro-4-[(1-methyl-1H-imidazol-2-yl)sulfanyl]anilino}-3-quinolinecarbonitrile]
IC50 ([1]; Homo sapiens, 96 h): < 5 nM
IC50 [1]: 6 nM
IC50 ([2]; Homo sapiens, Caco-2, 96 h): > 10000 nM
